Experimental data from patent publication US9409898B2, “Substituted pyrazole compounds as CRAC modulators” (LUPIN LIMITED, priority 2012, dated 2016).

Tested on: IL-2 secretion
Assay: Inhibition of IL-2 secretion in PHA-stimulated Jurkat T cells (ELISA)
Type: cell-based
Details: Homo sapiens, PHA stimulation, 20 to 24 hours, IL-2 by ELISA
Experimental: The CRAC channel modulatory activity of the compounds were thus evaluated by measuring the secretion of IL-2 by antigen stimulated T-cells in vitro. Alternatively, such activity can also be evaluated by assay methods known to one skilled in the art.
Inhibition of IL-2 secretion: Jurkat T cells were seeded at a density of 0.5 to 1 million cells per well in RPMI medium. Test compounds from this invention were added to the cells at different concentrations. This was followed by the addition of PHA, a T cell mitogen after 10 minutes. The cells were then incubated for 20 to 24 hours in a CO2 incubator at 37° C. After incubation with the compounds, cells were centrifuged, the supernatant was collected and processed for ELISA to quantitate the amount of IL-2 secreted. A commercial ELISA kit (R&D Systems, Inc. Minneapolis, Minn., USA) was used to estimate the IL-2 concentrations. Amount of IL-2 secreted by cells stimulated with PHA was considered as a 100% maximal signal and the decrease in amount of IL-2 secreted by cells treated with the test compounds was expressed as percent inhibition of the maximal signal. The dose response data was analyzed using 4-parametric sigmoidal dose response (variable slope) curve—fit.

Structure (SMILES)	IC50 [nM]
Cn1nc(-c2cc(C3CC3)nn2-c2ccc(NCc3c(F)cccc3F)cn2)oc1=O [Example 3, 5-(3-Cyclopropyl-1-(5-((2,6-difluorobenzyl)amino)pyridin-2-yl)-1H-pyrazol-5-yl)-3-methyl-1,3,4-oxadiazol-2(3H)-one]	100 to 1000
Cn1nc(-c2cc(CF)n(-c3ccc(NCc4c(F)cccc4F)cn3)n2)oc1=O [Example 5, 5-(1-(5-((2,6-Difluorobenzyl)amino)pyridin-2-yl)-5-(fluoromethyl)-1H-pyrazol-3-yl)-3-methyl-1,3,4-oxadiazol-2(3H)-one]	100 to 1000
COC(=O)C1(C)CC(c2cc(C(F)(F)F)n(-c3ccc(NCc4c(F)cccc4F)cn3)n2)=NO1 (centres unmarked) [Example 6, Methyl 3-(1-(5-((2,6-difluorobenzyl)amino)pyridin-2-yl)-5-(trifluoromethyl)-1H-pyrazol-3-yl)-5-methyl-4,5-dihydroisoxazole-5-carboxylate]	100 to 1000
COC(=O)C1(C)CC(c2cc(C(F)(F)F)n(-c3ccc(NCc4c(F)cccc4Cl)cn3)n2)=NO1 (centres unmarked) [Example 7, Methyl 3-(1-(5-((2-chloro-6-fluorobenzyl)amino)pyridin-2-yl)-5-(trifluoromethyl)-1H-pyrazol-3-yl)-5-methyl-4,5-dihydroisoxazole-5-carboxylate]	100 to 1000
Cn1nc(-c2cc(C(F)F)n(-c3ccc(NCc4c(F)cccc4F)cn3)n2)oc1=O [Example 12, 5-(1-(5-((2,6-Difluorobenzyl)amino)pyridin-2-yl)-5-(difluoromethyl)-1H-pyrazol-3-yl)-3-methyl-1,3,4-oxadiazol-2(3H)-one]	< 100
CC1(C)ON=C(c2cc(C(F)(F)F)n(-c3ccc(NC(=O)c4c(F)cccc4F)cn3)n2)C1=O [Example 14, N-(6-(3-(5,5-Dimethyl-4-oxo-4,5-dihydroisoxazol-3-yl)-5-(trifluoromethyl)-1H-pyrazol-1-yl)pyridin-3-yl)-2,6-difluorobenzamide]	< 100
CC1(C)ON=C(c2cc(C(F)(F)F)n(-c3ccc(NC(=O)c4c(F)cccc4Cl)cn3)n2)C1=O [Example 15, 2-Chloro-N-(6-(3-(5,5-dimethyl-4-oxo-4,5-dihydroisoxazol-3-yl)-5-(trifluoromethyl)-1H-pyrazol-1-yl)pyridin-3-yl)-6-fluorobenzamide]	< 100
CN1N=C(c2cc(C(F)(F)F)n(-c3ccc(NC(=O)c4c(F)cccc4F)cn3)n2)C(C)(C)C1=O [Example 16, 2,6-Difluoro-N-(6-(1′,4′,4′-trimethyl-5′-oxo-5-(trifluoromethyl)-4′,5′-dihydro-1H,1′H-[3,3′-bipyrazol]-1-yl)pyridin-3-yl)benzamide]	100 to 1000
CN1N=C(c2cc(C(F)(F)F)n(-c3ccc(NC(=O)c4c(F)cccc4Cl)cn3)n2)C(C)(C)C1=O [Example 17, 2-Chloro-6-fluoro-N-(6-(1′,4′,4′-trimethyl-5′-oxo-5-(trifluoromethyl)-4′,5′-dihydro-1H,1′H-[3,3′-bipyrazol]-1-yl)pyridin-3-yl)benzamide]	100 to 1000
Cc1cccc(F)c1C(=O)Nc1ccc(-n2nc(C3=NN(C)C(=O)C3(C)C)cc2C(F)(F)F)nc1 [Example 18, 2-Fluoro-6-methyl-N-(6-(1′,4′,4′-trimethyl-5′-oxo-5-(trifluoromethyl)-4′,5′-dihydro-1H,1′H-[3,3′-bipyrazol]-1-yl)pyridin-3-yl)benzamide]	< 100
Cn1c(-c2cc(C(F)(F)F)n(-c3ccc(NC(=O)c4c(F)cccc4F)cn3)n2)noc1=O [Example 19, 2,6-Difluoro-N-(6-(3-(4-methyl-5-oxo-4,5-dihydro-1,2,4-oxadiazol-3-yl)-5-(trifluoromethyl)-1H-pyrazol-1-yl)pyridin-3-yl)benzamide]	100 to 1000
CC(=O)N1N=C(c2cc(C(F)(F)F)n(-c3ccc(NC(=O)c4c(F)cccc4F)cn3)n2)OC1(C)C [Example 20, N-(6-(3-(4-Acetyl-5,5-dimethyl-4,5-dihydro-1,3,4-oxadiazol-2-yl)-5-(trifluoromethyl)-1H-pyrazol-1-yl)pyridin-3-yl)-2,6-difluorobenzamide]	100 to 1000
CC1(C)COC(c2cc(C(F)(F)F)n(-c3ccc(NC(=O)c4c(F)cccc4F)cn3)n2)=N1 [Example 21, N-(6-(3-(4,4-Dimethyl-4,5-dihydrooxazol-2-yl)-5-(trifluoromethyl)-1H-pyrazol-1-yl)pyridin-3-yl)-2,6-difluorobenzamide]	100 to 1000
Cn1nc(-c2cc(C(F)(F)F)n(-c3ccc(NCc4c(F)cccc4F)cn3)n2)oc1=O [Example 22, 5-(1-(5-((2,6-Difluorobenzyl)amino)pyridin-2-yl)-5-(trifluoromethyl)-1H-pyrazol-3-yl)-3-methyl-1,3,4-oxadiazol-2(3H)-one]	< 100
Cn1nc(-c2cc(C(F)(F)F)n(-c3ccc(NCc4c(F)cccc4Cl)cn3)n2)oc1=O [Example 23, 5-(1-(5-((2-Chloro-6-fluorobenzyl)amino)pyridin-2-yl)-5-(trifluoromethyl)-1H-pyrazol-3-yl)-3-methyl-1,3,4-oxadiazol-2(3H)-one]	< 100
CN1N=C(c2cc(C(F)(F)F)n(-c3ccc(NCc4c(F)cccc4F)cn3)n2)C(C)(C)C1=O [Example 24, 1′-(5-((2,6-Difluorobenzyl)amino)pyridin-2-yl)-1,4,4-trimethyl-5′-(trifluoromethyl)-1H,1′H-[3,3′-bipyrazol]-5(4H)-one]	100 to 1000
CN1N=C(c2cc(C(F)(F)F)n(-c3ccc(NCc4c(F)cccc4Cl)cn3)n2)C(C)(C)C1=O [Example 25, 1′-(5-((2-Chloro-6-fluorobenzyl)amino)pyridin-2-yl)-1,4,4-trimethyl-5′-(trifluoromethyl)-1H,1′H-[3,3′-bipyrazol]-5(4H)-one]	100 to 1000
Cn1c(-c2cc(C(F)(F)F)n(-c3ccc(NCc4c(F)cccc4F)cn3)n2)noc1=O [Example 26, 3-(1-(5-((2,6-Difluorobenzyl)amino)pyridin-2-yl)-5-(trifluoromethyl)-1H-pyrazol-3-yl)-4-methyl-1,2,4-oxadiazol-5(4H)-one]	100 to 1000
CC(=O)N1N=C(c2cc(C(F)(F)F)n(-c3ccc(NCc4c(F)cccc4F)cn3)n2)OC1(C)C [Example 27, 1-(5-(1-(5-((2,6-Difluorobenzyl)amino)pyridin-2-yl)-5-(trifluoromethyl)-1H-pyrazol-3-yl)-2,2-dimethyl-1,3,4-oxadiazol-3(2H)-yl)ethanone]	100 to 1000
CC1(C)COC(c2cc(C(F)(F)F)n(-c3ccc(NCc4c(F)cccc4F)cn3)n2)=N1 [Example 28, N-(2,6-Difluorobenzyl)-6-(3-(4,4-dimethyl-4,5-dihydrooxazol-2-yl)-5-(trifluoromethyl)-1H-pyrazol-1-yl)pyridin-3-amine]	100 to 1000

Next, values leading:

IC50 [nM]	Structure (SMILES)
100 to 1000	Cn1nc(-c2cc(C(F)(F)F)nn2-c2ccc(NC(=O)c3c(F)cccc3F)cn2)oc1=O [Example 1, 2,6-Difluoro-N-(6-(5-(4-methyl-5-oxo-4,5-dihydro-1,3,4-oxadiazol-2-yl)-3-(trifluoromethyl)-1H-pyrazol-1-yl)pyridin-3-yl)benzamide]
100 to 1000	Cc1cccc(F)c1C(=O)Nc1ccc(-n2nc(C(F)(F)F)cc2-c2nn(C)c(=O)o2)nc1 [Example 2, 2-Fluoro-6-methyl-N-(6-(5-(4-methyl-5-oxo-4,5-dihydro-1,3,4-oxadiazol-2-yl)-3-(trifluoromethyl)-1H-pyrazol-1-yl)pyridin-3-yl)benzamide]
> 1000	Cn1nc(-c2cc(C(F)F)nn2-c2ccc(NC(=O)c3c(F)cccc3F)cn2)oc1=O [Example 4, N-(6-(3-(Difluoromethyl)-5-(4-methyl-5-oxo-4,5-dihydro-1,3,4-oxadiazol-2-yl)-1H-pyrazol-1-yl)pyridin-3-yl)-2,6-difluorobenzamide]
< 100	Cn1nc(-c2cc(C(F)(F)F)n(-c3ccc(NC(=O)c4c(F)cccc4F)cn3)n2)oc1=O [Example 8, 2,6-Difluoro-N-(6-(3-(4-methyl-5-oxo-4,5-dihydro-1,3,4-oxadiazol-2-yl)-5-(trifluoromethyl)-1H-pyrazol-1-yl)pyridin-3-yl)benzamide]
< 100	Cn1nc(-c2cc(C(F)(F)F)n(-c3ccc(NC(=O)c4c(F)cccc4Cl)cn3)n2)oc1=O [Example 9, 2-Chloro-6-fluoro-N-(6-(3-(4-methyl-5-oxo-4,5-dihydro-1,3,4-oxadiazol-2-yl)-5-(trifluoromethyl)-1H-pyrazol-1-yl)pyridin-3-yl)benzamide]
< 100	Cc1cccc(F)c1C(=O)Nc1ccc(-n2nc(-c3nn(C)c(=O)o3)cc2C(F)(F)F)nc1 [Example 10, 2-Fluoro-6-methyl-N-(6-(3-(4-methyl-5-oxo-4,5-dihydro-1,3,4-oxadiazol-2-yl)-5-(trifluoromethyl)-1H-pyrazol-1-yl)pyridin-3-yl)benzamide]
< 100	Cn1nc(-c2cc(C(F)F)n(-c3ccc(NC(=O)c4c(F)cccc4F)cn3)n2)oc1=O [Example 11, N-(6-(5-(Difluoromethyl)-3-(4-methyl-5-oxo-4,5-dihydro-1,3,4-oxadiazol-2-yl)-1H-pyrazol-1-yl)pyridin-3-yl)-2,6-difluorobenzamide]
> 1000	Cn1nc(-c2cc(C(F)F)nn2-c2ccc(NCc3c(F)cccc3F)cn2)oc1=O [Example 13, 5-(1-(5-((2,6-Difluorobenzyl)amino)pyridin-2-yl)-3-(difluoromethyl)-1H-pyrazol-5-yl)-3-methyl-1,3,4-oxadiazol-2(3H)-one]
100 to 1000	Cn1nc(-c2cc(C3CC3)n(-c3ccc(NC(=O)c4c(F)cccc4F)cn3)n2)oc1=O [Example 29, N-(6-(5-Cyclopropyl-3-(4-methyl-5-oxo-4,5-dihydro-1,3,4-oxadiazol-2-yl)-1H-pyrazol-1-yl)pyridin-3-yl)-2,6-difluorobenzamide]
